Results published in ChEMBL document CHEMBL3603774, “Novel 5-functionalized-pyrazoles: Synthesis, characterization and pharmacological screening” (Bioorg Med Chem Lett, 2015).
≈ marks a conversion by molar mass, not a printed value.

Key:
Aspergillus niger [1] = experiment: Antifungal activity against Aspergillus niger MTCC 281 at 50 ug/ml after 24 hrs by disc diffusion method; type: functional; settings: MTCC 281, 24 h, read-out: IZ
Bacillus cereus [2] = experiment: Antibacterial activity against Bacillus cereus MTCC 8372 assessed as concentration required to completely destroy test microorganisms after 24 hrs; type: functional; settings: MTCC 8372, 24 h
Escherichia coli [3] = experiment: Antibacterial activity against Escherichia coli MTCC 724 at 100 ug/ml after 24 hrs by disc diffusion method; type: functional; settings: MTCC 724, 24 h, read-out: IZ
Klebsiella pneumoniae [4] = experiment: Antibacterial activity against Klebsiella pneumoniae MTCC 3384 at 50 ug/ml after 24 hrs by disc diffusion method; type: functional; settings: MTCC 3384, 24 h, read-out: IZ
Alpha amylase = target: T1, Alpha amylase (Homo sapiens, UniProt P0DUB6); experiment: Inhibition of alpha-amylase (unknown origin) using starch as substrate after 30 mins by spectrophotometer analysis
T1 sequence (P0DUB6 whole entry): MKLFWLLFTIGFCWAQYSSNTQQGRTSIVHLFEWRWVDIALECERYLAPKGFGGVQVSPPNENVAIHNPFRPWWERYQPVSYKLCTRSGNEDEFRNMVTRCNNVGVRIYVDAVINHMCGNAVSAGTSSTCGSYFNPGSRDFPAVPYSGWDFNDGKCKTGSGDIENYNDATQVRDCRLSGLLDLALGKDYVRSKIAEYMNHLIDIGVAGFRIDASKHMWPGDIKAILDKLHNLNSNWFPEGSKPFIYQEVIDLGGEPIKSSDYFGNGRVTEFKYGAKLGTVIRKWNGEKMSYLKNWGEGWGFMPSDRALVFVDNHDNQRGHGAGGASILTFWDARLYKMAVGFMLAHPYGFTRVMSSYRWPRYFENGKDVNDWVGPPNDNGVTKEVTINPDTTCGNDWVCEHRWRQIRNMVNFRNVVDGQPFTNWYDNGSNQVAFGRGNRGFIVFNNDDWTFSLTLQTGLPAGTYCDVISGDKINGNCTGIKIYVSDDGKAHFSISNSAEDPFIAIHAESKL

Aspergillus niger [5] = experiment: Antifungal activity against Aspergillus niger MTCC 281 at 100 ug/ml after 24 hrs by disc diffusion method; type: functional; settings: MTCC 281, 24 h, read-out: IZ
Staphylococcus aureus [6] = experiment: Antibacterial activity against Staphylococcus aureus MTCC 96 at 50 ug/ml after 24 hrs by disc diffusion method; type: functional; settings: MTCC 96, 24 h, read-out: IZ
Aspergillus niger [7] = experiment: Antifungal activity against Aspergillus niger MTCC 281 assessed as concentration required to completely destroy test microorganisms after 24 hrs; type: functional; settings: MTCC 281, 24 h
[8] = Inhibition of alpha-glucosidase (unknown origin) using p-nitrophenol glycoside as substrate after 30 mins by colorimetric analysis; design: species or system Homo sapiens
Aspergillus niger [9] = experiment: Antifungal activity against Aspergillus niger MTCC 281 after 48 hrs by microdilution method; type: functional; settings: MTCC 281, 48 h
Escherichia coli [10] = experiment: Antibacterial activity against Escherichia coli MTCC 724 at 50 ug/ml after 24 hrs by disc diffusion method; type: functional; settings: MTCC 724, 24 h, read-out: IZ
Escherichia coli [11] = experiment: Antibacterial activity against Escherichia coli MTCC 724 assessed as concentration required to completely destroy test microorganisms after 24 hrs; type: functional; settings: MTCC 724, 24 h
Staphylococcus aureus [12] = experiment: Antibacterial activity against Staphylococcus aureus MTCC 96 at 100 ug/ml after 24 hrs by disc diffusion method; type: functional; settings: MTCC 96, 24 h, read-out: IZ
Aspergillus flavus [13] = experiment: Antifungal activity against Aspergillus flavus MTCC 873 assessed as concentration required to completely destroy test microorganisms after 24 hrs; type: functional; settings: MTCC 873, 24 h
Klebsiella pneumoniae [14] = experiment: Antibacterial activity against Klebsiella pneumoniae MTCC 3384 assessed as concentration required to completely destroy test microorganisms after 24 hrs; type: functional; settings: MTCC 3384, 24 h
Aspergillus flavus [15] = experiment: Antifungal activity against Aspergillus flavus MTCC 873 at 50 ug/ml after 24 hrs by disc diffusion method; type: functional; settings: MTCC 873, 24 h, read-out: IZ
Bacillus cereus [16] = experiment: Antibacterial activity against Bacillus cereus MTCC 8372 at 100 ug/ml after 24 hrs by disc diffusion method; type: functional; settings: MTCC 8372, 24 h, read-out: IZ
Klebsiella pneumoniae [17] = experiment: Antibacterial activity against Klebsiella pneumoniae MTCC 3384 at 100 ug/ml after 24 hrs by disc diffusion method; type: functional; settings: MTCC 3384, 24 h, read-out: IZ
Bacillus cereus [18] = experiment: Antibacterial activity against Bacillus cereus MTCC 8372 at 50 ug/ml after 24 hrs by disc diffusion method; type: functional; settings: MTCC 8372, 24 h, read-out: IZ
Klebsiella pneumoniae [19] = experiment: Antibacterial activity against Klebsiella pneumoniae MTCC 3384 after 24 hrs by microdilution method; type: functional; settings: MTCC 3384, 24 h
Escherichia coli [20] = experiment: Antibacterial activity against Escherichia coli MTCC 724 after 24 hrs by microdilution method; type: functional; settings: MTCC 724, 24 h
Staphylococcus aureus [21] = experiment: Antibacterial activity against Staphylococcus aureus MTCC 96 assessed as concentration required to completely destroy test microorganisms after 24 hrs; type: functional; settings: MTCC 96, 24 h
Staphylococcus aureus [22] = experiment: Antibacterial activity against Staphylococcus aureus MTCC 96 after 24 hrs by microdilution method; type: functional; settings: MTCC 96, 24 h
Aspergillus flavus [23] = experiment: Antifungal activity against Aspergillus flavus MTCC 873 after 48 hrs by microdilution method; type: functional; settings: MTCC 873, 48 h
Aspergillus flavus [24] = experiment: Antifungal activity against Aspergillus flavus MTCC 873 at 100 ug/ml after 24 hrs by disc diffusion method; type: functional; settings: MTCC 873, 24 h, read-out: IZ
Bacillus cereus [25] = experiment: Antibacterial activity against Bacillus cereus MTCC 8372 after 24 hrs by microdilution method; type: functional; settings: MTCC 8372, 24 h

Row | SMILES | zone of inhibition at 50 µg/mL (Aspergillus niger [1]) | MBC (Bacillus cereus [2]) | zone of inhibition at 100 µg/mL (Escherichia coli [3]) | zone of inhibition at 50 µg/mL (Klebsiella pneumoniae [4]) | IC50 (Alpha amylase) | zone of inhibition at 100 µg/mL (Aspergillus niger [5]) | zone of inhibition at 50 µg/mL (Staphylococcus aureus [6]) | MFC (Aspergillus niger [7]) | IC50 [8] | MIC (Aspergillus niger [9]) | zone of inhibition at 50 µg/mL (Escherichia coli [10]) | MBC (Escherichia coli [11]) | zone of inhibition at 100 µg/mL (Staphylococcus aureus [12]) | MFC (Aspergillus flavus [13]) | MBC (Klebsiella pneumoniae [14]) | zone of inhibition at 50 µg/mL (Aspergillus flavus [15]) | zone of inhibition at 100 µg/mL (Bacillus cereus [16]) | zone of inhibition at 100 µg/mL (Klebsiella pneumoniae [17]) | zone of inhibition at 50 µg/mL (Bacillus cereus [18]) | MIC (Klebsiella pneumoniae [19]) | also measured
1 | CCOC(=O)c1c(-c2ccccc2)nn(-c2ccccc2)c1Cn1c(Cl)nc2ccccc21 | 10 mm | 220 µg/mL (≈ 481 µM) | 19 mm | 6 mm | 10 µg/mL (≈ 21.9 µM) | 10 mm | 9 mm | 215 µg/mL (≈ 471 µM) | 20 µg/mL (≈ 43.8 µM) | 25 µg/mL (≈ 54.7 µM) | 9 mm | 190 µg/mL (≈ 416 µM) | 11 mm | 230 µg/mL (≈ 503 µM) | 190 µg/mL (≈ 416 µM) | 8 mm | 14 mm | 12 mm | 6 mm | 30 µg/mL (≈ 65.7 µM) | MIC (Escherichia coli [20]): 35 µg/mL (≈ 76.6 µM); MBC (Staphylococcus aureus [21]): 160 µg/mL (≈ 350 µM); MIC (Staphylococcus aureus [22]): 30 µg/mL (≈ 65.7 µM); MIC (Aspergillus flavus [23]): 30 µg/mL (≈ 65.7 µM); zone of inhibition at 100 µg/mL (Aspergillus flavus [24]): 9 mm; MIC (Bacillus cereus [25]): 35 µg/mL (≈ 76.6 µM)
2 | CCOC(=O)c1c(-c2ccccc2)nn(-c2ccccc2)c1Cn1cnc2cc(C)ccc21 | 12 mm | 220 µg/mL (≈ 504 µM) | 12 mm | 9 mm | 45 µg/mL (≈ 103 µM) | 24 mm | 6 mm | 165 µg/mL (≈ 378 µM) | 45 µg/mL (≈ 103 µM) | 45 µg/mL (≈ 103 µM) | 8 mm | 205 µg/mL (≈ 470 µM) | 12 mm | 270 µg/mL (≈ 619 µM) | 240 µg/mL (≈ 550 µM) | 16 mm | 11 mm | 11 mm | 8 mm | 45 µg/mL (≈ 103 µM) | MIC (Escherichia coli [20]): 40 µg/mL (≈ 91.6 µM); MBC (Staphylococcus aureus [21]): 205 µg/mL (≈ 470 µM); MIC (Staphylococcus aureus [22]): 45 µg/mL (≈ 103 µM); MIC (Aspergillus flavus [23]): 40 µg/mL (≈ 91.6 µM); zone of inhibition at 100 µg/mL (Aspergillus flavus [24]): 21 mm; MIC (Bacillus cereus [25]): 50 µg/mL (≈ 115 µM)
3 | CCOC(=O)c1c(-c2ccccc2)nn(-c2ccccc2)c1COc1cc(OC)c(C=O)c(OC)c1 | 14 mm | 200 µg/mL (≈ 411 µM) | 30 mm | 10 mm | 40 µg/mL (≈ 82.2 µM) | 11 mm | 8 mm | 190 µg/mL (≈ 391 µM) | 35 µg/mL (≈ 71.9 µM) | 45 µg/mL (≈ 92.5 µM) | 15 mm | 160 µg/mL (≈ 329 µM) | 10 mm | 215 µg/mL (≈ 442 µM) | 150 µg/mL (≈ 308 µM) | 10 mm | 10 mm | 19 mm | 6 mm | 20 µg/mL (≈ 41.1 µM) | MIC (Escherichia coli [20]): 25 µg/mL (≈ 51.4 µM); MBC (Staphylococcus aureus [21]): 200 µg/mL (≈ 411 µM); MIC (Staphylococcus aureus [22]): 40 µg/mL (≈ 82.2 µM); MIC (Aspergillus flavus [23]): 50 µg/mL (≈ 103 µM); zone of inhibition at 100 µg/mL (Aspergillus flavus [24]): 12 mm; MIC (Bacillus cereus [25]): 40 µg/mL (≈ 82.2 µM)
